Test: molar heat capacity at saturation pressure; xn = mol fraction of the nth substance listed

CCCCn1cc[n+](C)c1.Cc1ccc(S(=O)(=O)[O-])cc1 [1-butyl-3-methylimidazolium tosylate] + O
Settings | molar heat capacity [J/K/mol]
187.71 K, Metastable crystal, x1 = 0.83 | 257.58
188.37 K, Crystal, x1 = 0.37 | 129.48
189.01 K, Crystal, x1 = 0.3 | 108.8
189.44 K, Crystal, x1 = 0.83 | 237.24
189.61 K, Metastable crystal, x1 = 0.83 | 259.14
191.25 K, Crystal, x1 = 0.37 | 131.12
191.41 K, Crystal, x1 = 0.83 | 240.11
191.51 K, Metastable crystal, x1 = 0.83 | 260.97
191.66 K, Crystal, x1 = 0.3 | 109.86
193.36 K, Crystal, x1 = 0.83 | 244.28
193.41 K, Metastable crystal, x1 = 0.83 | 262.79
194.12 K, Crystal, x1 = 0.37 | 132.64
194.31 K, Crystal, x1 = 0.3 | 111.02
195.3 K, Crystal, x1 = 0.83 | 250.02
195.31 K, Metastable crystal, x1 = 0.83 | 264.88
196.95 K, Crystal, x1 = 0.3 | 112.29
196.98 K, Crystal, x1 = 0.37 | 134.15
197.21 K, Metastable crystal, x1 = 0.83 | 268.01
197.23 K, Crystal, x1 = 0.83 | 254.97
199.09 K, Metastable crystal, x1 = 0.83 | 272.44
199.14 K, Crystal, x1 = 0.83 | 258.88
199.58 K, Crystal, x1 = 0.3 | 113.66
199.84 K, Crystal, x1 = 0.37 | 135.92
201 K, Metastable crystal, x1 = 0.83 | 280.52
201.17 K, Crystal, x1 = 0.83 | 262.53
201.54 K, Crystal, x1 = 0.3 | 114.83
201.97 K, Crystal, x1 = 0.37 | 137.43
202.83 K, Crystal, x1 = 0.3 | 115.46
202.96 K, Metastable crystal, x1 = 0.83 | 287.56
203.32 K, Crystal, x1 = 0.83 | 264.88
203.36 K, Crystal, x1 = 0.37 | 138.57
204.12 K, Crystal, x1 = 0.3 | 115.99
204.75 K, Crystal, x1 = 0.37 | 139.08
204.92 K, Metastable crystal, x1 = 0.83 | 289.38
205.4 K, Crystal, x1 = 0.3 | 116.63
205.47 K, Crystal, x1 = 0.83 | 266.7
206.15 K, Crystal, x1 = 0.37 | 140.46
206.69 K, Crystal, x1 = 0.3 | 117.05
206.89 K, Metastable crystal, x1 = 0.83 | 290.69
207.55 K, Crystal, x1 = 0.37 | 141.22
207.62 K, Crystal, x1 = 0.83 | 268.53
207.98 K, Crystal, x1 = 0.3 | 117.58
208.85 K, Metastable crystal, x1 = 0.83 | 291.99
208.96 K, Crystal, x1 = 0.37 | 142.1
209.26 K, Crystal, x1 = 0.3 | 118
209.77 K, Crystal, x1 = 0.83 | 270.61
210.37 K, Crystal, x1 = 0.37 | 142.86
210.55 K, Crystal, x1 = 0.3 | 118.74
210.81 K, Metastable crystal, x1 = 0.83 | 293.03
211.79 K, Crystal, x1 = 0.37 | 143.62
211.84 K, Crystal, x1 = 0.3 | 119.27
211.92 K, Crystal, x1 = 0.83 | 272.7
212.77 K, Metastable crystal, x1 = 0.83 | 294.34
213.13 K, Crystal, x1 = 0.3 | 120.22
213.22 K, Crystal, x1 = 0.37 | 144.25
214.07 K, Crystal, x1 = 0.83 | 274.78
214.41 K, Crystal, x1 = 0.3 | 121.91
214.66 K, Crystal, x1 = 0.37 | 145.26
214.74 K, Metastable crystal, x1 = 0.83 | 295.64
215.69 K, Crystal, x1 = 0.3 | 123.6
216.09 K, Crystal, x1 = 0.37 | 146.27
216.21 K, Crystal, x1 = 0.83 | 276.87
216.7 K, Metastable crystal, x1 = 0.83 | 296.68
216.97 K, Crystal, x1 = 0.3 | 125.51
217.52 K, Crystal, x1 = 0.37 | 148.16
218.24 K, Crystal, x1 = 0.3 | 127.73
218.36 K, Crystal, x1 = 0.83 | 278.69
218.66 K, Metastable crystal, x1 = 0.83 | 297.99
218.93 K, Crystal, x1 = 0.37 | 150.81
219.5 K, Crystal, x1 = 0.3 | 130.37
220.33 K, Crystal, x1 = 0.37 | 154.98
220.5 K, Crystal, x1 = 0.83 | 280.78
220.62 K, Metastable crystal, x1 = 0.83 | 299.29
220.76 K, Crystal, x1 = 0.3 | 133.97
221.7 K, Crystal, x1 = 0.37 | 161.54
222 K, Crystal, x1 = 0.3 | 138.72
222.58 K, Metastable crystal, x1 = 0.83 | 300.59
222.65 K, Crystal, x1 = 0.83 | 282.87
223.04 K, Crystal, x1 = 0.37 | 170.5
223.23 K, Crystal, x1 = 0.3 | 144.64
224.35 K, Crystal, x1 = 0.37 | 182.11
224.44 K, Crystal, x1 = 0.3 | 151.62
224.54 K, Metastable crystal, x1 = 0.83 | 301.9
224.8 K, Crystal, x1 = 0.83 | 284.95
225.63 K, Crystal, x1 = 0.3 | 159.55
225.63 K, Crystal, x1 = 0.37 | 195.24
226.5 K, Metastable crystal, x1 = 0.83 | 303.2
226.79 K, Crystal, x1 = 0.3 | 169.18
226.88 K, Crystal, x1 = 0.37 | 210.13
226.96 K, Crystal, x1 = 0.83 | 286.78
227.92 K, Crystal, x1 = 0.3 | 180.91
228.08 K, Crystal, x1 = 0.37 | 225.52
228.46 K, Metastable crystal, x1 = 0.83 | 304.76
229.02 K, Crystal, x1 = 0.3 | 196.03
229.14 K, Crystal, x1 = 0.83 | 288.6
229.24 K, Crystal, x1 = 0.37 | 246.35
230.06 K, Crystal, x1 = 0.3 | 216.44
230.36 K, Crystal, x1 = 0.37 | 271.97
230.42 K, Metastable crystal, x1 = 0.83 | 306.33
231.05 K, Crystal, x1 = 0.3 | 243.4
231.35 K, Crystal, x1 = 0.83 | 290.43
231.41 K, Crystal, x1 = 0.37 | 306.67
231.97 K, Crystal, x1 = 0.3 | 279.14
232.38 K, Metastable crystal, x1 = 0.83 | 307.89
232.4 K, Crystal, x1 = 0.37 | 350.72
232.82 K, Crystal, x1 = 0.3 | 325.66
233.32 K, Crystal, x1 = 0.37 | 386.68
233.59 K, Crystal, x1 = 0.3 | 384.24
233.59 K, Crystal, x1 = 0.83 | 291.21
234.25 K, Crystal, x1 = 0.37 | 311.22
234.29 K, Crystal, x1 = 0.3 | 455.08
234.34 K, Metastable crystal, x1 = 0.83 | 309.46
234.92 K, Crystal, x1 = 0.3 | 526.56
235.39 K, Crystal, x1 = 0.37 | 181.61
235.5 K, Crystal, x1 = 0.3 | 534.91
235.86 K, Crystal, x1 = 0.83 | 290.16
236.15 K, Crystal, x1 = 0.3 | 325.13
236.31 K, Metastable crystal, x1 = 0.83 | 310.24
236.7 K, Crystal, x1 = 0.37 | 181.73
237.09 K, Crystal, x1 = 0.3 | 171.82
238 K, Crystal, x1 = 0.37 | 183.25
238.22 K, Crystal, x1 = 0.83 | 290.95
238.25 K, Crystal, x1 = 0.3 | 170.34
238.27 K, Metastable crystal, x1 = 0.83 | 311.54
239.3 K, Crystal, x1 = 0.37 | 184.76
239.4 K, Crystal, x1 = 0.3 | 171.4
240.23 K, Metastable crystal, x1 = 0.83 | 313.11
240.46 K, Crystal, x1 = 0.83 | 293.81
240.56 K, Crystal, x1 = 0.3 | 172.98
240.6 K, Crystal, x1 = 0.37 | 186.27
241.71 K, Crystal, x1 = 0.3 | 174.78
241.9 K, Crystal, x1 = 0.37 | 188.17
242.19 K, Metastable crystal, x1 = 0.83 | 315.19
242.68 K, Crystal, x1 = 0.83 | 297.2
242.86 K, Crystal, x1 = 0.3 | 176.47
243.19 K, Crystal, x1 = 0.37 | 189.93
244.01 K, Crystal, x1 = 0.3 | 178.27
244.14 K, Metastable crystal, x1 = 0.83 | 317.28
244.48 K, Crystal, x1 = 0.37 | 191.7
244.87 K, Crystal, x1 = 0.83 | 300.59
245.15 K, Crystal, x1 = 0.3 | 179.96
245.76 K, Crystal, x1 = 0.37 | 193.72
246.08 K, Metastable crystal, x1 = 0.83 | 319.62
